What was measured:
Details in all cases: exposure time: 90 min
[1] = system: 1531 (donor line of iPSC-derived cardiomyocytes); test: POD (EC05) for increase in beat frequency (positive chronotrope) vs vehicle; higher = less potent (higher point of departure)
Protocol: (§1)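 Human iPSC-derived cardiomyocytes from 16 donors were exposed for 90 min at 37 °C to each PFAS at 0.1, 1, 10 and 100 µM in 0.5% DMSO, 384-well plates. Kinetic Ca2+ flux (FLIPR) and Hoechst nuclei counts were normalised to vehicle wells and fitted with a hierarchical Bayesian Hill model to give donor-specific PODs: EC05 for beat-rate increase or decrease and for decay-to-rise ratio increase (QT proxy), EC95 for peak-frequency loss (asystole), EC10 for total cell number loss. 0.03 µM is the lower bound.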

[2] = system: 1368 (donor line of iPSC-derived cardiomyocytes); test: as above
Protocol: as §1

[3] = system: 1309 (donor line of iPSC-derived cardiomyocytes); test: as above
Protocol: as §1

[4] = system: 20084 (donor line of iPSC-derived cardiomyocytes); test: as above
Protocol: as §1

[5] = system: 20032 (donor line of iPSC-derived cardiomyocytes); test: as above
Protocol: as §1

[6] = system: 1083 (donor line of iPSC-derived cardiomyocytes); test: as above
Protocol: as §1

[7] = system: 1516 (donor line of iPSC-derived cardiomyocytes); test: as above
Protocol: as §1

[8] = system: 1118 (donor line of iPSC-derived cardiomyocytes); test: as above
Protocol: as §1

[9] = system: 1368; test: POD (EC95) for loss of peak frequency (asystole) vs vehicle; higher = less potent (higher point of departure)
Outline: (§2)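 A FLIPR Tetra recorded Ca2+ flux in dye-loaded human iPSC-derived cardiomyocytes from 16 donors before and after 90 min at 37 °C with 0.1, 1, 10 and 100 µM (final concentrations, 0.5% DMSO). Vehicle-normalised beat frequency, decay-to-rise ratio or peak frequency were fitted with hierarchical Bayesian Hill models to give donor-specific points of departure. The threshold was a 5% change, or for peak frequency a 95% loss.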

[10] = system: 1309; test: as above
Outline: as §2

[11] = system: 1535 (donor line of iPSC-derived cardiomyocytes); test: as above
Outline: as §2

[12] = system: 20084; test: as above
Outline: as §2

[13] = system: 20032; test: as above
Outline: as §2

[14] = system: 11235 (donor line of iPSC-derived cardiomyocytes); test: as above
Outline: as §2

[15] = system: 1516; test: as above
Outline: as §2

[16] = system: 1118; test: as above
Outline: as §2

[17] = system: 1565 (donor line of iPSC-derived cardiomyocytes); test: as above
Outline: as §2

[18] = system: 1434 (donor line of iPSC-derived cardiomyocytes); test: as above
Outline: as §2

[19] = system: 30145 (donor line of iPSC-derived cardiomyocytes); test: as above
Outline: as §2

[20] = system: 1392 (donor line of iPSC-derived cardiomyocytes); test: as above
Outline: as §2

| SMILES | POD vs vehicle [1] [µM] | POD vs vehicle [2] [µM] | POD vs vehicle [3] [µM] | POD vs vehicle [4] [µM] | POD vs vehicle [5] [µM] | POD vs vehicle [6] [µM] | POD vs vehicle [7] [µM] | POD vs vehicle [8] [µM] | POD vs vehicle [9] [µM] | POD vs vehicle [10] [µM] | POD vs vehicle [11] [µM] | POD vs vehicle [12] [µM] | POD vs vehicle [13] [µM] | POD vs vehicle [14] [µM] | POD vs vehicle [15] [µM] | POD vs vehicle [16] [µM] | POD vs vehicle [17] [µM] | POD vs vehicle [18] [µM] | POD vs vehicle [19] [µM] | POD vs vehicle [20] [µM] |
| --- | --- | --- | --- | --- | --- | --- | --- | --- | --- | --- | --- | --- | --- | --- | --- | --- | --- | --- | --- | --- |
| NC(=O)C(F)(F)C(F)(F)C(F)(F)F [Heptafluorobutyramide] | > 100 | > 100 | > 100 | > 100 | > 100 | > 100 | > 100 | > 100 | > 100 | > 100 | > 100 | > 100 | > 100 | > 100 | > 100 | > 100 | > 100 | > 100 | > 100 | > 100 |
| OCC(F)(F)C(F)(F)C(F)(F)C(F)F [1H,1H,5H-Perfluoropentanol] | > 100 | > 100 | > 100 | > 100 | > 100 | > 100 | > 100 | > 100 | > 100 | > 100 | > 100 | > 100 | > 100 | > 100 | > 100 | 86.3 | > 100 | > 100 | > 100 | > 100 |
| O=C(O)C=CC(F)(C(F)(F)F)C(F)(F)F [3-(Perfluoroisopropyl)-2-propenoic_acid] | > 100 | > 100 | > 100 | > 100 | > 100 | > 100 | > 100 | > 100 | > 100 | > 100 | > 100 | > 100 | > 100 | > 100 | > 100 | > 100 | > 100 | > 100 | > 100 | > 100 |
| O=C([O-])C(F)(F)C(F)(F)C(F)(F)C(F)(F)C(F)(F)C(F)(F)C(F)(F)F.[NH4+] [Ammonium_perfluorooctanoate] | > 100 | > 100 | > 100 | > 100 | > 100 |  | > 100 | > 100 | > 100 | > 100 | > 100 | > 100 | > 100 | 72.4 | > 100 | > 100 | > 100 | > 100 | > 100 | > 100 |
| O=C(O)C(F)(F)C(F)(F)C(F)(F)C(F)(F)C(F)(F)C(F)(F)C(F)(F)C(F)(F)Cl [9-Chloro-perfluorononanoic_acid] | > 100 | > 100 | > 100 | > 100 | > 100 | > 100 | > 100 | > 100 | > 100 | > 100 | > 100 | > 100 | > 100 | 14.7 | 90.9 | 84.3 | > 100 | 87.4 | > 100 | > 100 |
| O=C(O)CCC(F)(F)C(F)(F)C(F)(F)C(F)(F)C(F)(F)F [2H,2H,3H,3H-Perfluorooctanoic_acid] | > 100 | > 100 | > 100 | > 100 | > 100 | > 100 | > 100 | > 100 | > 100 | > 100 | > 100 | 66.4 | > 100 | 59.9 | 75.1 | 67.4 | > 100 | 90.8 | 77.8 | 73 |
| O=C(O)C(F)(F)OC(F)(F)C(F)(F)OC(F)(F)C(F)(F)OC(F)(F)C(F)(F)C(F)(F)C(F)(F)F [Perfluoro-3,6,9-trioxatridecanoic_acid] | > 100 | > 100 | > 100 | > 100 | > 100 | > 100 | > 100 | > 100 | > 100 | > 100 | > 100 | > 100 | > 100 | 92.2 | 84.8 | 63.7 | > 100 | 89.3 | > 100 | > 100 |
| O=C(O)C(F)(F)C(F)(F)C(F)(F)C(F)(F)C(F)(F)C(F)(F)F [Perfluoroheptanoic_acid] | > 100 | > 100 | > 100 | > 100 | > 100 | > 100 | > 100 | > 100 | > 100 | > 100 | > 100 | > 100 | > 100 | > 100 | > 100 | > 100 | > 100 | > 100 | > 100 | > 100 |
| O=C(O)C(F)(F)C(F)(F)C(F)(F)C(F)(F)C(F)(F)C(F)(F)C(F)(F)F [Perfluorooctanoic_acid] | > 100 | > 100 | > 100 | > 100 | > 100 | > 100 | > 100 | > 100 | > 100 | > 100 | > 100 | > 100 | > 100 | 92.2 | > 100 | > 100 | > 100 | > 100 | > 100 | > 100 |
| O=C(CC(=O)C(F)(F)C(F)(F)F)C(F)(F)F [3H,3H-Perfluoro-2,4-hexanedione] | > 100 | > 100 | > 100 | > 100 | > 100 | > 100 | > 100 | > 100 | > 100 | > 100 | > 100 | > 100 | > 100 | 87.4 | > 100 | 80.5 | > 100 | 78.3 | > 100 | > 100 |
| O=S(=O)(O)C(F)(F)C(F)(F)C(F)(F)C(F)(F)F [Perfluorobutanesulfonic_acid] | > 100 | > 100 | > 100 | > 100 | > 100 |  | > 100 | > 100 | > 100 | > 100 | > 100 | > 100 | > 100 | > 100 | > 100 | > 100 | > 100 | > 100 | > 100 | > 100 |
| O=C(O)C=C(C(F)(F)F)C(F)(F)F [3,3-Bis(trifluoromethyl)-2-propenoic_acid] | > 100 | > 100 | > 100 | > 100 | > 100 | > 100 | > 100 | > 100 | > 100 | > 100 | > 100 | > 100 | > 100 | > 100 | > 100 | > 100 | > 100 | > 100 | > 100 | > 100 |
| NS(=O)(=O)C(F)(F)C(F)(F)C(F)(F)C(F)(F)C(F)(F)C(F)(F)F [Perfluorohexanesulfonamide] | > 100 | > 100 | > 100 | > 100 | > 100 | > 100 | > 100 | > 100 | > 100 | 90.8 | 71.2 | > 100 | 96 | 6.45 | 77.8 | 7.84 | > 100 | 58.4 | > 100 | > 100 |
| NC(=O)C(F)(F)C(F)(F)C(F)(F)C(F)(F)C(F)(F)C(F)(F)C(F)(F)F [Perfluorooctanamide] | > 100 | > 100 | > 100 | > 100 | > 100 | > 100 | > 100 | > 100 | > 100 | > 100 | > 100 | > 100 | > 100 | > 100 | > 100 | > 100 | > 100 | > 100 | > 100 | > 100 |
| NC(=O)C(F)(F)C(F)(F)C(F)(F)C(F)(F)F [Nonafluoropentanamide] | > 100 | > 100 | > 100 | > 100 | > 100 | > 100 | > 100 | > 100 | > 100 | > 100 | > 100 | > 100 | > 100 | > 100 | > 100 | 84.9 | > 100 | > 100 | > 100 | > 100 |
| OCC(F)(F)OC(F)(F)C(F)(F)OC(F)(F)C(F)(F)OC(F)(F)F [Fluorinated_triethylene_glycol_monomethyl_ether] | > 100 | > 100 | > 100 | > 100 | > 100 | > 100 |  | > 100 | > 100 | > 100 | > 100 | > 100 | > 100 | > 100 | > 100 | 9.61 | > 100 | > 100 | > 100 | > 100 |
| OCC(O)CC(F)(F)C(F)(F)C(F)(F)C(F)(F)C(F)(F)C(F)(F)C(F)(F)C(F)(F)F (centres undefined) [1-(Perfluorofluorooctyl)propane-2,3-diol] | > 100 | > 100 | 0.394 | > 100 | > 100 | > 100 | 0.516 | 3.1 | > 100 | > 100 | > 100 | > 100 | > 100 | > 100 | > 100 | 1.19 | > 100 | > 100 | > 100 | > 100 |
| O=C(O)C(F)(F)C(F)(F)C(F)F [2,2,3,3,4,4-Hexafluorobutanoic_acid] | > 100 | > 100 | > 100 | > 100 | > 100 |  | > 100 | > 100 | > 100 | > 100 | > 100 | > 100 | > 100 | > 100 | > 100 | > 100 | > 100 | > 100 | > 100 | > 100 |
| CN(CCO)S(=O)(=O)C(F)(F)C(F)(F)C(F)(F)C(F)(F)C(F)(F)C(F)(F)C(F)(F)C(F)(F)F [N-Methyl-N-(2-hydroxyethyl)perfluorooctanesulfonamide] | > 100 | > 100 | > 100 | > 100 | 0.199 | > 100 |  | > 100 | > 100 | > 100 | > 100 | > 100 | > 100 | > 100 | > 100 |  | > 100 | > 100 | > 100 | > 100 |

From the supplement of paper PMC11368000
